# According to ChEMBL document CHEMBL4346726 (Bioorg Med Chem Lett, 2019):
# Columns and labels:
# Hepatitis C virus [1] = experiment: Antiviral activity against HCV genotype 3a in RLuc cells assessed as reduction in viral replication by luciferase reporter gene assay; format: functional, organism-based, Hepacivirus hominis, subtype 3a; conditions: Hepatitis C virus, subtype 3a
# [2] = Drug uptake in human hepatocytes; format: ADME, cell-based, Hepatocyte; conditions: TDE = time-dependent effect
# Hepatitis C virus [3] = experiment: Antiviral activity against HCV genotype 5a in RLuc cells assessed as reduction in viral replication by luciferase reporter gene assay; format: functional, organism-based, Hepacivirus hominis; conditions: subtype 5a
# [4] = Protein binding in rat plasma; format: ADME; conditions: read-out: PPB
# [5] = Clearance in rat at 1 mg/kg, iv or 3 mg/kg, po; format: ADME, organism-based; conditions: in vivo
# Hepatitis C virus [6] = experiment: Antiviral activity against HCV genotype 1b in RLuc cells assessed as reduction in viral replication by luciferase reporter gene assay; format: functional, organism-based, Hepacivirus hominis; conditions: subtype 1b
# Hepatitis C virus [7] = experiment: Antiviral activity against HCV genotype 1a harboring R155K mutant in RLuc cells assessed as reduction in viral replication by luciferase reporter gene assay; format: functional, organism-based, Hepacivirus hominis; conditions: subtype 1a
# [8] = Fraction absorbed in cynomolgus monkey at 1 mg/kg, po; format: ADME, organism-based, Macaca fascicularis; conditions: in vivo, read-out: Fabs
# [9] = Protein binding in human plasma; format: ADME; conditions: read-out: PPB
# [10] = Half life in dog at 0.5 mg/kg, iv or 1 mg/kg, po; format: ADME, […], Canis lupus familiaris; conditions: in vivo
# Hepatitis C virus [11] = experiment: Antiviral activity against HCV genotype 1b harboring D168E mutant in RLuc cells assessed as reduction in viral replication by luciferase reporter gene assay; format: functional, organism-based, Hepacivirus hominis; conditions: subtype 1b
# Hepatitis C virus [12] = experiment: Antiviral activity against HCV genotype 2a in RLuc cells assessed as reduction in viral replication by luciferase reporter gene assay; format: functional, organism-based, Hepacivirus hominis; conditions: subtype 2a
# [13] = Fraction absorbed in rat at 3 mg/kg, po; format: ADME, organism-based; conditions: in vivo, read-out: Fabs
# Hepatitis C virus [14] = experiment: Antiviral activity against HCV genotype 6a in RLuc cells assessed as reduction in viral replication by luciferase reporter gene assay; format: functional, organism-based, Hepacivirus hominis; conditions: subtype 6a
# [15] = Ratio of drug level in dog liver to plasma at 0.5 mg/kg, iv or 1 mg/kg, po measured at 2 hr; format: ADME, […], Canis lupus familiaris
# Hepatitis C virus [16] = experiment: Antiviral activity against HCV genotype 1a harboring Q80K mutant in RLuc cells assessed as reduction in viral replication by luciferase reporter gene assay; format: functional, organism-based, Hepacivirus hominis; conditions: subtype 1a
# Hepatitis C virus [17] = experiment: Antiviral activity against HCV genotype 4a in RLuc cells assessed as reduction in viral replication by luciferase reporter gene assay; format: functional, organism-based, Hepacivirus hominis; conditions: subtype 4a
# Hepatitis C virus [18] = experiment: Antiviral activity against HCV genotype 1b harboring A156T mutant in RLuc cells assessed as reduction in viral replication by luciferase reporter gene assay; format: functional, organism-based, Hepacivirus hominis; conditions: subtype 1b
# [19] = Drug uptake in organic-anion-transporting polypeptide over expressing CHO cells; format: ADME, cell-based, Cricetulus griseus; conditions: chinese hamster, TDE = time-dependent effect
# [20] = Selectivity ratio of EC50 for antiviral activity against HCV genotype 3a to EC50 for antiviral activity against HCV genotype 1a; format: functional
# [21] = Clearance in cynomolgus monkey at 0.5 mg/kg, iv or 1 mg/kg, po; format: ADME, organism-based, Macaca fascicularis; conditions: in vivo
# [22] = Oral bioavailability in rat at 3 mg/kg; format: ADME, organism-based; conditions: in vivo
# [23] = Ratio of drug level in rat liver to plasma at 1 mg/kg, iv or 3 mg/kg, po measured at 2 hr; format: ADME, organism-based
# [24] = Volume of distribution at steady state in dog at 0.5 mg/kg, iv or 1 mg/kg, po; format: ADME, […], Canis lupus familiaris; conditions: in vivo, read-out: Vdss
# [25] = Half life in rat at 1 mg/kg, iv or 3 mg/kg, po; format: ADME, organism-based; conditions: in vivo
# [26] = Volume of distribution at steady state in rat at 1 mg/kg, iv or 3 mg/kg, po; format: ADME, organism-based; conditions: in vivo, read-out: Vdss
# Hepatitis C virus [27] = experiment: Antiviral activity against HCV genotype 1a in RLuc cells assessed as reduction in viral replication by luciferase reporter gene assay; format: functional, organism-based, Hepacivirus hominis; conditions: subtype 1a
# [28] = Fraction unbound in rat plasma; format: ADME, cell-free
# [29] = Fraction unbound in human plasma; format: ADME, cell-free
# Hepacivirus hominis = experiment: Binding affinity to HCV NS3/4a protease assessed as compound-protein adduct formation per mg protein using radiolabelled compound
# [30] = Protein binding in cynomolgus monkey plasma; format: ADME, Macaca fascicularis; conditions: read-out: PPB
# [31] = Ratio of drug level in cynomolgus monkey liver to plasma at 0.5 mg/kg, iv or 1 mg/kg, po measured at 2 hr; format: ADME, organism-based, Macaca fascicularis
# [32] = Fraction unbound in dog plasma; format: ADME, cell-free, Canis lupus familiaris
# [33] = Oral bioavailability in cynomolgus monkey at 1 mg/kg; format: ADME, organism-based, Macaca fascicularis; conditions: in vivo
# [34] = Volume of distribution at steady state in cynomolgus monkey at 0.5 mg/kg, iv or 1 mg/kg, po; format: ADME, organism-based, Macaca fascicularis; conditions: in vivo, read-out: Vdss
# [35] = Inhibition of HCV genotype 3a NS3/4a protease by enzymatic assay; design: species or system Hepatitis C virus subtype 3a
# [36] = Clearance in dog at 0.5 mg/kg, iv or 1 mg/kg, po; format: ADME, […], Canis lupus familiaris; conditions: in vivo
# Hepatitis C virus [37] = experiment: Antiviral activity against HCV genotype 2b in RLuc cells assessed as reduction in viral replication by luciferase reporter gene assay; format: functional, organism-based, Hepacivirus hominis; conditions: subtype 2b
# [38] = Protein binding in dog plasma; format: ADME, Canis lupus familiaris; conditions: read-out: PPB
# [39] = Fraction unbound in cynomolgus monkey plasma; format: ADME, cell-free, Macaca fascicularis
# Hepatitis C virus [40] = experiment: Antiviral activity against HCV genotype 1a harboring A156T mutant in RLuc cells assessed as reduction in viral replication by luciferase reporter gene assay; format: functional, organism-based, Hepacivirus hominis; conditions: subtype 1a
# [41] = Half life in cynomolgus monkey at 0.5 mg/kg, iv or 1 mg/kg, po; format: ADME, organism-based, Macaca fascicularis; conditions: in vivo
# [42] = Oral bioavailability in dog at 1 mg/kg; format: ADME, […], Canis lupus familiaris; conditions: in vivo
# [43] = Fraction absorbed in dog at 1 mg/kg, po; format: ADME, […], Canis lupus familiaris; conditions: in vivo, read-out: Fabs
# [44] = Steady state half life in human at 30 to 300 mg administered once daily for 7 days measured under phase 1 clinical trials; format: ADME; conditions: in vivo, read-out: t1/2ss
# [45] = Drug metabolism in human liver microsomes assessed as metabolite formation in presence of glutathione; format: ADME, Microsome
# [46] = Half life in rat; format: ADME; conditions: in vivo
# [47] = Volume of distribution at steady state in rat; format: ADME; conditions: in vivo, read-out: Vdss
# [48] = Lipophilicity, log D of compound; format: physicochemical; conditions: octanol/water
# [49] = Clearance in rat; format: ADME; conditions: in vivo
# [50] = Oral bioavailability in rat; format: ADME, organism-based; conditions: in vivo
# [51] = Drug concentration in rat liver after 6 hrs; format: ADME, tissue-based; conditions: read-out: Drug uptake
# [52] = Drug metabolism in human liver microsomes assessed as hydroxylated metabolite formation; format: ADME, Microsome
# [53] = MRT in rat; format: ADME; conditions: in vivo
smiles,measurement,setting,value
CC[C@@H]1[C@@H]2CN(C(=O)[C@H](C(C)(C)C)NC(=O)O[C@@H]3C[C@H]3CCCCC(F)(F)c3nc4ccc(OC)cc4nc3O2)[C@@H]1C(=O)N[C@]1(C(=O)NS(=O)(=O)C2(C)CC2)C[C@H]1C(F)F,EC50,Hepatitis C virus [1],6.1 nM
same,Drug uptake,[2],Tde
same,EC50,Hepatitis C virus [3],1.9 nM
same,fraction unbound,[4],< 0.01
same,clearance,[5],13.7 mL/min/kg
same,EC50,Hepatitis C virus [6],3.3 nM
same,EC50,Hepatitis C virus [7],2.7 nM
same,Fa,[8],23%
same,fraction unbound,[9],< 0.01
same,half-life,[10],4.2 h
same,EC50,Hepatitis C virus [11],4 nM
same,EC50,Hepatitis C virus [12],3.7 nM
same,Fa,[13],100%
same,EC50,Hepatitis C virus [14],1.5 nM
same,Kp at 2 h,[15],55
same,EC50,Hepatitis C virus [16],3.1 nM
same,EC50,Hepatitis C virus [17],4.9 nM
same,EC50,Hepatitis C virus [18],> 500 nM
same,Drug uptake,[19],Tde
same,Ratio EC50,[20],<2
same,clearance,[21],14.8 mL/min/kg
same,bioavailability,[22],83%
same,Kp at 2 h,[23],> 500
same,Vd,[24],0.94 L/kg
same,half-life,[25],0.93 h
same,Vd,[26],0.84 L/kg
same,EC50,Hepatitis C virus [27],3.9 nM
same,Fu,[28],0.42%
same,Fu,[29],0.46%
same,PB,Hepacivirus hominis,< 1 pmol/mg
same,fraction unbound,[30],< 0.01
same,Kp at 2 h,[31],100
same,Fu,[32],0.28%
same,bioavailability,[33],10%
same,Vd,[34],0.8 L/kg
same,Ki,[35],0.063 nM
same,clearance,[36],3.17 mL/min/kg
same,EC50,Hepatitis C virus [37],6.6 nM
same,fraction unbound,[38],< 0.01
same,Fu,[39],0.91%
same,EC50,Hepatitis C virus [40],> 500 nM
same,half-life,[41],2.1 h
same,bioavailability,[42],27%
same,Fa,[43],30%
same,half-life,[44],28 to 41 h
C=C[C@@H]1C[C@]1(NC(=O)[C@@H]1[C@H](C)[C@@H]2CN1C(=O)[C@H](C(C)(C)C)NC(=O)O[C@@H]1C[C@H]1CCCCCc1nc3ccc(OC)cc3nc1O2)C(=O)NS(=O)(=O)C1CC1,EC50,Hepatitis C virus [1],41 nM
same,Drug metabolism,[45],Metabolite_Detected
same,Ki,[35],0.094 nM
CC[C@@H]1[C@@H]2CN(C(=O)[C@H](C(C)(C)C)NC(=O)O[C@@H]3C[C@H]3CCCCCc3nc4ccc(OC)cc4nc3O2)[C@@H]1C(=O)N[C@]1(C(=O)NS(=O)(=O)C2CC2)C[C@H]1CC,EC50,Hepatitis C virus [1],272 nM
same,half-life,[46],5 h
same,Vd,[47],3.1 L/kg
same,logD,[48],4.6
same,clearance,[49],11.2 mL/min/kg
same,bioavailability,[50],100%
same,concentration at 6 h,[51],30.2 µM
same,Ki,[35],0.563 nM
C=C[C@@H]1C[C@]1(NC(=O)[C@@H]1C[C@@H](Oc2ncc(OC)c3ccc(Cl)cc23)CN1C(=O)[C@@H](NC(=O)OC(C)(C)C)C(C)(C)C)C(=O)NS(=O)(=O)C1CC1,PB,Hepacivirus hominis,114 pmol/mg
C=C[C@@H]1C[C@]1(NC(=O)[C@@H]1[C@H](CC)[C@@H]2CN1C(=O)[C@H](C(C)(C)C)NC(=O)O[C@@H]1C[C@H]1CCCCCc1nc3ccc(OC)cc3nc1O2)C(=O)NS(=O)(=O)C1CC1,EC50,Hepatitis C virus [1],20 nM
same,half-life,[46],2.2 h
same,Vd,[47],1.9 L/kg
same,logD,[48],4.1
same,clearance,[49],14.7 mL/min/kg
same,PB,Hepacivirus hominis,117 pmol/mg
same,concentration at 6 h,[51],20.9 µM
same,Ki,[35],0.081 nM
COc1ccc2nc3c(nc2c1)O[C@H]1CN(C(=O)[C@H](C(C)(C)C)NC(=O)O[C@@H]2C[C@H]2CCCCC3)[C@H](C(=O)N[C@]2(C(=O)NS(=O)(=O)C3(C)CC3)C[C@H]2C(F)F)[C@@H]1C,EC50,Hepatitis C virus [1],20 nM
same,half-life,[46],1.3 h
same,Vd,[47],2.2 L/kg
same,logD,[48],3.5
same,clearance,[49],35 mL/min/kg
same,bioavailability,[50],100%
same,concentration at 6 h,[51],3.1 µM
same,Ki,[35],0.1 nM
CC[C@@H]1[C@@H]2CN(C(=O)[C@H](C(C)(C)C)NC(=O)O[C@@H]3C[C@H]3CCCCCc3nc4ccc(OC)cc4nc3O2)[C@@H]1C(=O)N[C@]1(C(=O)NS(=O)(=O)C2(C)CC2)C[C@H]1C(F)F,EC50,Hepatitis C virus [1],23 nM
same,half-life,[46],1.4 h
same,Vd,[47],1.7 L/kg
same,logD,[48],3.8
same,Drug metabolism,[52],Metabolite_Detected
same,clearance,[49],21.7 mL/min/kg
same,MRT,[53],1.4 h
same,bioavailability,[50],31%
same,PB,Hepacivirus hominis,10 pmol/mg
same,concentration at 6 h,[51],14 µM
same,Ki,[35],0.067 nM
